Test results taken from patent US9365583B2, “Substituted pyrazoles and uses thereof” (Genentech, Inc., priority 2013, dated 2016).

Target: T1, N-terminally GST-tagged DLK (catalytic domain amino acid 1-520) (Homo sapiens, UniProt Q12852)
T1 construct: N-terminally GST-tagged DLK (catalytic domain amino acid 1-520); purchased Carna Bioscience
T1 sequence (Q12852 1-520): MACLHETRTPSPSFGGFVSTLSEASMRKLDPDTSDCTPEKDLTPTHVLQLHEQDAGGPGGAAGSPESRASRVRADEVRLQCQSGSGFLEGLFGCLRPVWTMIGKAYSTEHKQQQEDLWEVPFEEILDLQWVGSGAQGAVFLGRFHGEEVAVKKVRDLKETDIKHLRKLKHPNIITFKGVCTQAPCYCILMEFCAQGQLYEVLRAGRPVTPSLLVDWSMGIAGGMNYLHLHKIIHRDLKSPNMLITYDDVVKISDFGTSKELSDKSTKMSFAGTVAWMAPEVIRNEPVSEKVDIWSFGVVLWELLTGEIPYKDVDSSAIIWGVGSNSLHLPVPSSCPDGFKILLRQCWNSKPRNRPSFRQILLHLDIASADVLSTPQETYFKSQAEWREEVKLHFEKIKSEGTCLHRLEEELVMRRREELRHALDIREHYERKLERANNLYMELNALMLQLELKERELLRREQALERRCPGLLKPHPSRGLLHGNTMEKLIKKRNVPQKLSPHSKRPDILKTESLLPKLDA
Experiment: DLK TR-FRET inhibition assay
Format: biochemical
Conditions: 5 nM GST-DLK, 40 nM HIS-MKK4 K131M substrate, 30 μM ATP, 60 minutes at ambient temperature
Description: DLK TR-FRET inhibition assay: DLK kinase reactions (20 μL) containing 5 nM N-terminally GST-tagged DLK (catalytic domain amino acid 1-520) (Carna Bioscience), 40 nM N-terminally HIS-tagged MKK4 K131M substrate, and 30 μM ATP in kinase reaction buffer (50 mM HEPES, pH 7.5, 0.01% Triton X-100, 0.01% Bovine γ-Globulins, 2 mM DTT, 10 mM MgCl2 and 1 mM EGTA), and testing compound 1:3 serial diluted starting at 20 uM were incubated at ambient temperature for 60 minutes in 384 well OptiPlate (Perkin Elmer). To quench kinase reactions and detect phosphorylated MKK4, 15 μL of TR-FRET antibody mixture containing 2 nM anti-phosphorylated MKK4 labeled with Europium cryptate (Cisbio) and 23 nM anti-HIS labeled with D2 (Cisbio) in detection buffer (25 mM Tris pH 7.5, 100 mM NaCl, 100 mM EDTA, 0.01% Tween-20, and 200 mM KF) was added to the reaction mixture. The detection mixture was incubated for 3 hours at ambient temperature and the TR-FRET was detected with an EnVision multilabel plate reader (Perkin-Elmer) using the LANCE/DELFIA Dual Enh label from Perkin-Elmer (excitation filter: UV2 (TRF) 320 and emission filters: APC 665 and Europium 615).

SMILES	Ki [nM]
COC1CCN([C@@H]2C[C@@H]3[C@H](C2)[C@H]3c2cc(-c3cnc(N)c(OC(F)F)c3)nn2C(C)C)CC1 [compound 250, 3-(difluoromethoxy)-5-(1-isopropyl-5-((1R,3s,5S,6r)-3-(4-methoxy-piperidin-1-yl)bicyclo[3.1.0]hexan-6-yl)-1H-pyrazol-3-yl) pyridin-2-amine]	2
CC(C)n1nc(-c2cnc(N)c(C(F)(F)F)c2)cc1[C@H]1[C@@H]2C[C@H](N3CCN4CCCC4C3)C[C@@H]21 (stereo partly drawn) [compound 262, 5-(5-((1R,3r,5S,6r)-3-(hexa-hydropyrrolo[1,2-a]pyrazin-2(1H)-yl)bicyclo[3.1.0]hexan-6-yl)-1-isopropyl-1H-pyrazol-3-yl)-3-(trifluoromethyl)pyridin-2-amine]	< 0.1
CC(C)n1nc(-c2cnc(N)c(OC(F)F)c2)cc1[C@H]1[C@@H]2C[C@H](N3C[C@@H]4C[C@H]3CO4)C[C@@H]21 [compound 83, 5-(5-((1R,3r,5S,6S)-3-((1S,4S)-2-oxa-5-azabicyclo[2.2.1]heptan-5-yl)bicyclo[3.1.0]hexan-6-yl)-1-isopropyl-1H-pyrazol-3-yl)-3-(difluoromethoxy)pyridin-2-amine]	0.12
CC(C)n1nc(-c2cnc(N)c(C(F)(F)F)c2)cc1[C@H]1[C@@H]2C[C@H](n3ccnc3)C[C@@H]21 [compound 115, 5-(5-((1R,3r,5S,6r)-3-(1H-imidazol-1-yl)bicyclo[3.1.0]hexan-6-yl)-1-isopropyl-1H-pyrazol-3-yl)-3-(trifluoromethyl)pyridin-2-amine]	9.19
CC(C)n1nc(-c2cnc(N)c(C(F)(F)F)c2)cc1[C@@H]1[C@@H]2C[C@H](N3CCOCC3)C[C@@H]21 [compound 126, 5-(1-isopropyl-5-((1R,5S,6s)-3-morpholinobicyclo[3.1.0]hexan-6-yl)-1H-pyrazol-3-yl)-3-(trifluoro-methyl)pyridin-2-amine]	> 1600
CC(C)n1nc(-c2cnc(N)c(C(F)(F)F)c2)cc1[C@H]1[C@@H]2C[C@@H](NCC(F)F)C[C@@H]21 [compound 254, 5-(5-((1R,3s,5S,6r)-3-((2,2-difluoroethyl)amino)bicyclo[3.1.0]hexan-6-yl)-1-isopropyl-1H-pyrazol-3-yl)-3-(trifluoromethyl) pyridin-2-amine]	2.4
CC(C)n1nc(-c2cnc(N)c(OC(F)(F)F)c2)cc1[C@H]1[C@@H]2C[C@H](N3C[C@H]4C[C@@H]3CO4)C[C@@H]21 [compound 56, 5-(5-((1R,3r,5S,6R)-3-((1R,4R)-2-oxa-5-azabicyclo[2.2.1]heptan-5-yl)bicyclo[3.1.0]hexan-6-yl)-1-isopropyl-1H-pyrazol-3-yl)-3-(trifluoromethoxy)pyridin-2-amine]	4.81
CC(C)n1nc(-c2cnc(N)c(C(F)(F)F)c2)cc1[C@H]1[C@@H]2C[C@H](N3CCN(C)C4(COC4)C3)C[C@@H]21 [compound 179, 5-(1-isopropyl-5-((1R,3r,5S,6r)-3-(5-methyl-2-oxa-5,8-diazaspiro [3.5]nonan-8-yl)bicyclo[3.1.0]hexan-6-yl)-1H-pyrazol-3-yl)-3-(trifluoromethyl)pyridin-2-amine]	4.3
COC1CN([C@@H]2C[C@@H]3[C@H](C2)[C@H]3c2cc(-c3cnc(N)c(OC(F)(F)F)c3)nn2C(C)C)C1 [compound 38, 5-(1-isopropyl-5-((1R,3s,5S,6r)-3-(3-methoxyazetidin-1-yl)bicyclo[3.1.0]hexan-6-yl)-1H-pyrazol-3-yl)-3-(trifluoromethoxy) pyridin-2-amine]	1.45
Nc1ncc(-c2cc([C@H]3[C@@H]4C[C@H](N5CCOCC5)C[C@@H]43)nn2CC2CC2)cc1OC(F)F [compound 267, 5-(1-(cyclopropylmethyl)-3-((1R,3r,5S,6r)-3-morpholinobicyclo [3.1.0]hexan-6-yl)-1H-pyrazol-5-yl)-3-(difluoromethoxy) pyridin-2-amine]	220
CC(C)n1nc(-c2cnc(N)c(OC(F)F)c2)cc1[C@H]1[C@@H]2C[C@H](N3CCCN(C)CC3)C[C@@H]21 [compound 208, 3-(difluoromethoxy)-5-(1-isopropyl-5-((1R,3r,5S,6r)-3-(4-methyl-1,4-diazepan-1-yl)bicyclo[3.1.0]hexan-6-yl)-1H-pyrazol-3-yl) pyridin-2-amine]	1.5
CO[C@@H]1CCN([C@@H]2C[C@@H]3[C@H](C2)[C@H]3c2cc(-c3cnc(N)c(OC(F)(F)F)c3)nn2C(C)C)C1 [compound 193, 5-(1-isopropyl-5-((1R,3s,5S,6R)-3-((R)-3-methoxypyrrolidin-1-yl)bicyclo[3.1.0]hexan-6-yl)-1H-pyrazol-3-yl)-3-(trifluoromethoxy) pyridin-2-amine]	1.4
CC(C)n1nc(-c2cnc(N)c(OC(F)(F)F)c2)cc1[C@H]1[C@@H]2C[C@@H](N3CC4(COC4)C3)C[C@@H]21 [compound 58, 5-(5-((1R,3s,5S,6r)-3-(2-oxa-6-azaspiro[3.3]heptan-6-yl)bicyclo [3.1.0]hexan-6-yl)-1-isopropyl-1H-pyrazol-3-yl)-3-(trifluoromethoxy)pyridin-2-amine]	1.86
CC(C)n1nc(-c2cnc(N)c(OC(F)F)c2)cc1[C@H]1[C@@H]2C[C@H](NCC(F)(F)F)C[C@@H]21 [compound 120, 3-(difluoromethoxy)-5-(1-isopropyl-5-((1R,3r,5S,6r)-3-((2,2,2-trifluoroethyl)amino)bicyclo [3.1.0]hexan-6-yl)-1H-pyrazol-3-yl) pyridin-2-amine]	6.91
CC(C)n1nc(-c2cnc(N)c(OC(F)F)c2)cc1C1[C@H]2CC(N3CCOCC(F)C3)C[C@@H]12 (single isomer, unassigned) [compound 175]	5.5
CO[C@H]1CCCN([C@@H]2C[C@@H]3[C@H](C2)[C@H]3c2cc(-c3cnc(N)c(C(F)(F)F)c3)nn2C(C)C)C1 [compound 290, 5-(1-isopropyl-5-((1R,3s,5S,6S)-3-((S)-3-methoxypiperidin-1-yl)bicyclo[3.1.0]hexan-6-yl)-1H-pyrazol-3-yl)-3-(trifluoromethyl) pyridin-2-amine]	7.7
CC(C)n1nc(-c2cnc(N)c(OC(F)(F)F)c2)cc1[C@H]1[C@@H]2C[C@H](N3CC4(COC4)C3)C[C@@H]21 [compound 57, 5-(5-((1R,3r,5S,6r)-3-(2-oxa-6-azaspiro[3.3]heptan-6-yl)bicyclo [3.1.0]hexan-6-yl)-1-isopropyl-1H-pyrazol-3-yl)-3-(trifluoro-methoxy)pyridin-2-amine]	1.88
CC(C)n1nc(-c2cnc(N)c(OC(F)(F)F)c2)cc1[C@H]1[C@@H]2C[C@@H](N3CCCOCC3)C[C@@H]21 [compound 99, 5-(5-((1R,3s,5S,6r)-3-(1,4-oxazepan-4-yl)bicyclo[3.1.0]hexan-6-yl)-1-isopropyl-1H-pyrazol-3-yl)-3-(trifluoromethoxy)pyridin-2-amine]	1.16
CC(C)n1nc(-c2cnc(N)c(C(F)(F)F)c2)cc1[C@H]1[C@@H]2C[C@H](NCC(F)F)C[C@@H]21 [compound 253, 5-(5-((1R,3r,5S,6r)-3-((2,2-difluoroethyl)amino)bicyclo[3.1.0]hexan-6-yl)-1-isopropyl-1H-pyrazol-3-yl)-3-(trifluoromethyl) pyridin-2-amine]	3.4
